Assay results published in patent publication US7384789B2, “Divalent metal ion sensors and binders” (The University of North Dakota, priority 2006, dated 2008).
pKd: −log10 of the molar value.

Tests used:
[1] = Fluorescence emission profile with stoichiometric divalent metal ion: Ca^2+; conditions: 200 μM compound, λex/λem: compound 1 300/390 nm, compound 3 315/357 nm, compound 4 365/520 nm
Experimental: (§1) Commercially available reagents, obtained from Acros Organics and Aldrich were used as received. All solvents were distilled before use. Reactions were monitored by thin-layer chromatography (TLC) and visualization was accomplished with a UV lamp. Reaction mixtures were purified by column chromatography, performed with the indicated solvents using silica gel (230-400 mesh). The Rf values were calculated based on the eluents used for purification. The yields reported refer to chromatographically and spectroscopically pure compounds. The purity of the compounds were ascertained by GC/MS analysis (HP 5890 Series II GC fitted with HP 5971 Series Mass Selective Detector). ^1H and proton decoupled ^13C NMR spectra were recorded on a Bruker AMX 500 MHz spectrometer at ambient temperature. The fluorescence spectra were obtained using Jobin Yvon Horiba Fluorolog-3 spectrofluorometer. […] The fluorescence measurements were carried out on 3 mL samples of the sensor and 3 μL aliquots of the 200 mM metal ion solution in HEPES were added to the sample to make up the desired metal concentrations.
(§2) The influence of divalent metal ions on the fluorescence spectral profile of compound 1 is shown in FIG. 1, where the fluorescence emission spectra of 200 μM compound 1 (λex=300 nm) with stoichiometric concentrations of selected divalent metal ions. Compound 1 has a weak fluorescence emission peak around 386-390 nm, which is differently affected by different metal ions. […] In contrast, the fluorescence intensity of compound 1 decreases in the presence of Cu^2+, Ni^2+, and Co^2+.
(§3) The influence of divalent metal ions on the fluorescence spectral profile of compound 3 is shown in FIG. 3, where the fluorescence emission spectra of 200 μM […] (λex=315 nm) with stoichiometric concentrations of selected divalent metal ions. Compound 3 has a weak fluorescence emission peak around 355-360 nm, which is differently affected by different metal ions. […] In contrast, as expected, the fluorescence intensity of compound 3 decreases in the presence of Cu^2+, Ni^2+, and Co^2+. […]

[2] = Fluorescence emission profile with stoichiometric divalent metal ion: Cd^2+; conditions: 200 μM compound, λex/λem: compound 3 315/357 nm, compound 4 365/520 nm
Experimental: as §1
(§4) The influence of divalent metal ions on the fluorescence spectral profile of compound 3 is shown in FIG. 3, where the fluorescence emission spectra of 200 μM compound 1 (λex=315 nm) with stoichiometric concentrations of selected divalent metal ions. […]

[3] = Spectrofluorometric titration of compound with Zn^2+ (ZnCl2); format: binding; conditions: approx.
Experimental: as §1
To determine the magnitude of Zn^2+ induced fluorescence spectral changes of compound 1 as well as its binding affinity, a detailed spectrofluorometric titration study was performed.

[4] = Fluorescence emission profile with stoichiometric divalent metal ion: Cu^2+; conditions: 200 μM compound, λex/λem: compound 1 300/390 nm, compound 3 315/357 nm, compound 4 365/520 nm
Experimental: as §1, §2, §3

[5] = Fluorescence emission profile with stoichiometric divalent metal ion: Co^2+; conditions: 200 μM compound, λex/λem: compound 1 300/390 nm, compound 3 315/357 nm, compound 4 365/520 nm
Experimental: as §1, §2, §3

[6] = Fluorescence emission profile with stoichiometric divalent metal ion: Mg^2+; conditions: 200 μM compound, λex/λem: compound 1 300/390 nm, compound 3 315/357 nm, compound 4 365/520 nm
Experimental: as §1, §2, §3

[7] = Fluorescence emission profile with stoichiometric divalent metal ion: Ni^2+; conditions: 200 μM compound, λex/λem: compound 1 300/390 nm, compound 3 315/357 nm, compound 4 365/520 nm
Experimental: as §1, §2, §3

[8] = Fluorescence emission profile with stoichiometric divalent metal ion: Zn^2+; conditions: for effect of Zn^2+ on fluorescence emission intensity: stoichiometric ion, λex/λem: compound 1 300/390 nm, compound 3 315/357 nm, compound 4 365/520 nm
Experimental: Commercially available reagents, obtained from Acros Organics and Aldrich were used as received. All solvents were distilled before use. Reactions were monitored by thin-layer chromatography (TLC) and visualization was accomplished with a UV lamp. Reaction mixtures were purified by column chromatography, performed with the indicated solvents using silica gel (230-400 mesh). The Rf values were calculated based on the eluents used for purification. The yields reported refer to chromatographically and spectroscopically pure compounds. The purity of the compounds were ascertained by GC/MS analysis (HP 5890 Series II GC fitted with HP 5971 Series Mass Selective Detector). ^1H and proton decoupled ^13C NMR spectra were recorded on a Bruker AMX 500 MHz spectrometer at ambient temperature. The fluorescence spectra were obtained using Jobin Yvon Horiba Fluorolog-3 spectrofluorometer. The HEPES buffer was prepared from commercially available 1M solution of the free acid and the pH was adjusted to 7.0 by the addition of KOH pellets in the presence of 0.135 M NaCl. The fluorescence measurements were carried out on 3 mL samples of the sensor and 3 μL aliquots of the 200 mM metal ion solution in HEPES were added to the sample to make up the desired metal concentrations.
as §2
The influence of divalent metal ions on the fluorescence spectral profile of compound 3 is shown in FIG. 3, where the fluorescence emission spectra of 200 μM […] (λex=315 nm) with stoichiometric concentrations of selected divalent metal ions. Compound 3 has a weak fluorescence emission peak around 355-360 nm, which is differently affected by different metal ions. […] In contrast, as expected, the fluorescence intensity of compound 3 decreases in the presence of Cu^2+, Ni^2+, and Co^2+. […] Titration of compound 3 with Zn^2+ indicates a Kd value of 2 mM (approx.).
The influence of divalent metal ions on the fluorescence spectral profile of compound is shown in FIG. 4, where the fluorescence emission spectra of 200 μM […] (λex=365 nm) with stoichiometric concentrations of selected divalent metal ions. Compound 4 has a UV absorption maximum at 425 nm. […] Excitation at shorter wavelengths e.g. at 365 nm leads to a weak emission peak around 520 nm, which is differently affected by different metal ions.

[9] = Fluorescence emission profile with stoichiometric divalent metal ion: Hg^2+; conditions: 200 μM compound, λex/λem: compound 3 315/357 nm, compound 4 365/520 nm
Experimental: as §1, §4

Solubility = format: physicochemical; conditions: for solubility: solvent not given
[10] = Cai et al., Inorg. Chim. Acta 1997; cited from earlier work

Compound | effect of Ca^2+ on fluorescence emission intensity [1] | effect of Cd^2+ on fluorescence emission intensity [2] | pKd [3] | effect of Cu^2+ on fluorescence emission intensity [4] | effect of Co^2+ on fluorescence emission intensity [5] | effect of Mg^2+ on fluorescence emission intensity [6] | effect of Ni^2+ on fluorescence emission intensity [7] | effect of Zn^2+ on fluorescence emission intensity ([8]; 200 μM compound) | effect of Hg^2+ on fluorescence emission intensity [9] | solubility in the aqueous medium (Solubility; aqueous medium) | solubility (Solubility) | Zn^2+-induced fluorescence enhancement in the presence of excess Ca^2+ ([8]; 100 fold excess of Ca^2+) | increase of fluorescence emission intensity in the presence of Zn^2+ ([8]; stoichiometric concentration of Zn^2+, 200 μM compound, λex=300 nm) | divalent metal binding [10] | solubility in water and methanol (Solubility; water and methanol)
O=C([O-])CN(CC(=O)[O-])c1cccc(N(CC(=O)[O-])CC(=O)[O-])c1.[Na+].[Na+].[Na+].[Na+] [compound 3, Sodium 1,3-diamino-(N,N,N′,N′-tetraacetate)benzene] | slightly enhanced | slightly enhanced | ~2.70 | decreases | decreases | slightly enhanced | decreases | enhanced significantly | slightly enhanced |  |  |  |  |  | 
COc1c(N(CC(=O)[O-])CC(=O)[O-])cc(C)cc1N(CC(=O)[O-])CC(=O)[O-].[K+].[K+].[K+].[K+] [compound 1, Potassium-2,6-diamino-(N,N,N′,N′-tetraacetate)-4-methylanisole] | only slightly increased |  |  | decreases | decreases | barely affected | decreases | most dramatic effect |  | high solubility | readily soluble | maintained | about 10 fold |  | 
Sodium 2,6-diamino-(N,N,N′,N′-tetraacetate)-3-nitroanisole [compound 4] | slightly quenched | substantially enhanced |  | significantly quenched | significantly quenched | slightly quenched | significantly quenched | substantially enhanced | no discernable effect |  |  |  |  |  | 
Cc1cc(N(CC(=O)O)CC(=O)O)c(O)c(N(CC(=O)O)CC(=O)O)c1 [N,N,N′,N′-tetrakis(carboxylatemethyl)-2,6-diaminocresol] |  |  |  |  |  |  |  |  |  |  |  |  |  | binding to only Co^2+ or Cu^2+ | 
Zinc-2,6-diamino-(N,N,N′,N′-tetraacetate)-4-methylanisole [compound 1-Zn complex] |  |  |  |  |  |  |  |  |  |  | low solubility |  |  |  | low solubility
